Results published in article PMC2841647 (PLoS ONE, 2010).
Values joined by “and” are separate entries in the source; they are usually repeats but may differ in a detail not shown here. Equal values may be shown once. Read-outs that look alike come from different tables or passages of the source. Where a SMILES comes first, the peptide text is derived from it. Bridges are numbered along the chain shown (N, C = ends).

How the values were obtained:
human TrkB receptor = target: T1, human TrkB receptor (Homo sapiens, UniProt Q16620); assay: KIRA-ELISA (TrkB tyrosine phosphorylation) in TetOn-rhTrkB CHO cells; format: cell-based; conditions: for IC50 / ratio signal/background / EC50: TetOn-rhTrkB cells; for EC50: read-out: EC50, TrkB activation
T1 construct: expressed in transfected cells
T1 sequence (Q16620 32-822): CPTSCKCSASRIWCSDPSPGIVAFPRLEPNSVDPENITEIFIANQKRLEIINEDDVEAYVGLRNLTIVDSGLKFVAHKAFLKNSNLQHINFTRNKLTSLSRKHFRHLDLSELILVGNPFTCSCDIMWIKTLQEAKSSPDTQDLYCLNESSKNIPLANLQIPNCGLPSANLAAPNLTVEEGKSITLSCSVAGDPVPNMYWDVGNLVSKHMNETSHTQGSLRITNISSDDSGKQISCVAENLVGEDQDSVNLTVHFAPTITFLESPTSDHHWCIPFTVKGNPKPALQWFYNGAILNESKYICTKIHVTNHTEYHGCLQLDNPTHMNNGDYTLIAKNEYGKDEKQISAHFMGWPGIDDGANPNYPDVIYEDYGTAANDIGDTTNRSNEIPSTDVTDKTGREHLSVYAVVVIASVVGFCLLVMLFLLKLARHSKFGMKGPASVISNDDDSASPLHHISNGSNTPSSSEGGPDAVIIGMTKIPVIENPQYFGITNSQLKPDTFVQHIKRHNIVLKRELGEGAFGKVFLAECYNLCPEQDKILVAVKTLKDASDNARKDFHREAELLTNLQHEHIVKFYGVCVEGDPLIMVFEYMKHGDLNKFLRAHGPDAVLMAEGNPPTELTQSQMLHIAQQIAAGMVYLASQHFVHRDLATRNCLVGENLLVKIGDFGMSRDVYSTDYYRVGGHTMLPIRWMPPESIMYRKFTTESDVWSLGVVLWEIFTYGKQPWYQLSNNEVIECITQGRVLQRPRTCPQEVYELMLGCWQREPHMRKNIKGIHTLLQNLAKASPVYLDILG
Source text: (§1) The human recombinant TrkB receptor was fluorescently tagged at its C-terminus with the Enhanced cyan fluorescent protein (rhTrkB-ECFP) by cloning the full human TrkB sequence (kindly provided by G. M. Brodeur) into the pECFP-N1 expression vector (Clontech). For inducible expression, rhTrkB-ECFP was subcloned into the tetracycline-responsive (TetOn) vector pTRE2 (Clontech). Chinese Hamster Ovary cells stably expressing rhTrkB-ECFP (TetOn-rhTrkB cells), were produced by transfection of the pTRE2-rhTrkB-ECFP plasmid into CHO-K1 TetOn cells (Clontech) followed by clone selection in 0.25 mg/ml hygromycin B (Invitrogen) and 0.1 mg/ml geneticin (G418; Invitrogen). Resistant cells were selected based on both fluorescence intensity and KIRA-ELISA profile after an overnight incubation in presence of 1000 ng/ml doxycycline (Clontech). Cortical neurons were prepared and cultured from E16 mouse embryos as described previously. The nnr5 PC12-TrkA, nnr5 PC12-TrkB and nnr5 PC12-TrkC cells (kindly provided by M. V. Chao) are NGF non-responding mutant PC12 cells stably transfected with TrkA, TrkB and TrkC cDNA, respectively.
(§2) TrkB activity was quantified using the previously described KIRA-ELISA assay with slight modifications. Cortical neurons were seeded on polyornithin-coated flat-bottom 96-well culture plates (12×10^4 cells per well) and cultured eight days at 37°C in 5% CO2. TetOn-rhTrkB cells were seeded on flat-bottom 96-well culture plates (4×10^4 cells per well) and incubated overnight with 1000 ng/ml doxycycline (Figs. S1,S2) except when indicated. Fluorescence levels in TetOn-rhTrkB cells were verified before each assay. […] Assay was stopped by removing the medium on ice and membranes were solubilized using KIRA-ELISA solubilization buffer (NaCl 150 mM, Hepes 50 mM, Triton X-100 0.5%, thimerosal 0.01%, sodium orthovanadate 2 mM, supplemented with a cocktail of protease inhibitors) for 1 h at room temperature. Solubilized membranes were transferred for 2 h at room temperature onto ELISA microtiter plate (Nunc Maxisorp) pre-coated overnight at 4°C with appropriate antibodies [polyclonal anti-GFP (1∶5000, Clontech) for TetOn-rhTrkB, polyclonal anti-TrkB (1 µg/ml, Upstate) for cultured neurons and brain slices, for phosphorylation assays; monoclonal anti-GFP (1∶3000, Chemicon) for TetOn-rhTrkB, monoclonal anti-TrkB (1∶1000, BD Biosciences) for cultured neurons and brain slices, for total TrkB quantification]. […] Absorbance was read at 450 nm after addition of 3,3′,5′,5-tetramethyl-benzidine substrate (Sigma) and acidification with 1N hydrochloric acid.
(§3) Concentration-response and competition curves were obtained using an iterative least-squares method derived from that of Parker & Waud (1971). […] Concentration-response curves and Eadie-Hofstee plots were analyzed using two-way ANOVA. Significance over time in locomotor activity studies was given using two-way ANOVA followed by Bonferroni's post-hoc test. […] One-way ANOVA followed by post-hoc Dunnett's test was used to evaluate statistical significance compare to saline group in EPM and FST procedures. n represents the number of independent experiments.

nnr5 PC12 cells = assay: Morphological analysis of toxicity / cell death; format: cell-based; conditions: 72 hours after exposure to 10 µM
nnr5 PC12-TrkB cells = conditions: 48 h
[1] = target: T2, native TrkB receptors in cortical neurons (Mus musculus, UniProt P15209); assay: KIRA-ELISA (TrkB tyrosine phosphorylation) in primary cortical neurons; format: cell-based; conditions: for EC50: read-out: EC50, TrkB activation
T2 construct: cortical neurons naturally express TrkB receptors; endogenous in cells; host or cells: primary cortical neurons from E16 mouse embryos
T2 sequence (P15209 32-821): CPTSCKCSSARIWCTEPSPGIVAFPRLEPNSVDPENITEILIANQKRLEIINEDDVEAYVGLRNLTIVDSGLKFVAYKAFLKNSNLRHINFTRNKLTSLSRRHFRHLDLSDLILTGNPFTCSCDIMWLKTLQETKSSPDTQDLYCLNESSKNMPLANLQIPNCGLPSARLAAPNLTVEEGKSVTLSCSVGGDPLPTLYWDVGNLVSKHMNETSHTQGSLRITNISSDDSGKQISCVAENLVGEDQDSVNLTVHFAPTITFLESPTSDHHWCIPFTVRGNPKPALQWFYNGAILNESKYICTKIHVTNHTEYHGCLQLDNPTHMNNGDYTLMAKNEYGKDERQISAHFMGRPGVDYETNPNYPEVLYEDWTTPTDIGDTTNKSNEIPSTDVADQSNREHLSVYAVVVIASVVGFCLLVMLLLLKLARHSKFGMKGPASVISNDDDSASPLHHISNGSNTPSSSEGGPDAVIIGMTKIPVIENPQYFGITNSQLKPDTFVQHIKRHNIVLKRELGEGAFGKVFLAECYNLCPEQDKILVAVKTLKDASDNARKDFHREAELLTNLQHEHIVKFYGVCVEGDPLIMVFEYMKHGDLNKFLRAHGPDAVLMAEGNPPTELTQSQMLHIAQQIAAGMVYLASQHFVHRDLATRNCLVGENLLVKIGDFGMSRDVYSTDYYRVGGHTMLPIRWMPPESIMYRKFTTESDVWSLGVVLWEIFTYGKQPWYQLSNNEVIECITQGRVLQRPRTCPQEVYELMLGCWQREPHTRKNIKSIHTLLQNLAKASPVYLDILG
Source text: as §1, §2, §3

mice [2] = assay: Elevated plus-maze (EPM); format: in vivo, mouse; conditions: vs saline
Protocol: (§4) Mice were treated as described above before being subjected to behavioral studies. Predictive estimation for anxiolytic properties of tat-cyclotraxin-B was assessed using open field and elevated plus-maze (EPM). Antidepressant-like action of tat-cyclotraxin-B was assessed with the forced-swim test (FST). Effects of acute treatment with tat-cyclotraxin-B on spontaneous locomotion, exploration and reactivity to a novel open field was assessed in plexiglas activity chambers (Med Associates; 45×45×31 cm). Mice were placed into the center of the open field, and activity was recorded for 30 min. Testing took place under bright ambient light conditions to increase the anxiety component of the center areas of the field (defined as the central 15×15 cm portion). Mice subjected to EPM received a double 90-interval i.v. injection of tat-cyclotraxin-B or saline buffer before being placed on the platform of the EPM and assessed for 5 min (26×5×36 cm). The diazepam control group consisted of saline buffer double-treated mice that further received a 30-min i.p. injection of diazepam (1 mg/kg). Mice were assessed for number of entries and amount of time spent in open versus closed arms. The FST procedure was applied to treated mice as described by Porsolt et al. (see ref. [60]). Mice were dropped individually into glass cylinder (height, 25 cm; diameter, 10 cm) containing 10 cm water height, maintained at 23–25°C. Animals were tested for a total of 6 min. The total time of swimming, the number of climbing attempts and the time of immobility was recorded during the last 4 min of the session, after 2 min of habituation. The paroxetine control group consisted of saline buffer double-treated mice that further received a 30-min i.p. injection of paroxetine (2 mg/kg). Behaviors were recorded on videotape and scored blind.

mice [3] = assay: Forced swim test (FST); format: in vivo, mouse; conditions: acute treatment, vs saline
Protocol: as §4

TrkB in brain slices = target: T3, TrkB in brain slices (Mus musculus, UniProt P15209); assay: KIRA-ELISA in brain slices incubated with peptide; format: cell-based; conditions: peptide added to brain slices
T3 construct: KIRA-ELISA analysis of brain TrkB receptors from mice; from tissue; host or cells: adult Swiss mouse brain, 300-µm coronal slices
T3 sequence (P15209 32-821): as above
Protocol: TrkB activity was quantified using the previously described KIRA-ELISA assay with slight modifications. Cortical neurons were seeded on polyornithin-coated flat-bottom 96-well culture plates (12×10^4 cells per well) and cultured eight days at 37°C in 5% CO2. TetOn-rhTrkB cells were seeded on flat-bottom 96-well culture plates (4×10^4 cells per well) and incubated overnight with 1000 ng/ml doxycycline (Figs. S1,S2) except when indicated. Fluorescence levels in TetOn-rhTrkB cells were verified before each assay. […] Solubilized membranes were transferred for 2 h at room temperature onto ELISA microtiter plate (Nunc Maxisorp) pre-coated overnight at 4°C with appropriate antibodies [polyclonal anti-GFP (1∶5000, Clontech) for TetOn-rhTrkB, polyclonal anti-TrkB (1 µg/ml, Upstate) for cultured neurons and brain slices, for phosphorylation assays; monoclonal anti-GFP (1∶3000, Chemicon) for TetOn-rhTrkB, monoclonal anti-TrkB (1∶1000, BD Biosciences) for cultured neurons and brain slices, for total TrkB quantification]. […] Absorbance was read at 450 nm after addition of 3,3′,5′,5-tetramethyl-benzidine substrate (Sigma) and acidification with 1N hydrochloric acid.

[4] = TrkB + p75NTR co-expressing cortical neurons

COC(=O)[C@@]1(O)C[C@H]2O[C@]1(C)n1c3ccccc3c3c4c(c5c6ccccc6n2c5c31)C(=O)NC4 [K252a, reference compound]
reversal of BDNF signal (human TrkB receptor; KIRA-ELISA, BDNF 4 nM, TetOn-rhTrkB cells and cortical neurons (Fig. S2)): fully reversed

CSCC[C@@H]1NC(=O)[C@@H]2CCCN2C(=O)[C@H](CC(N)=O)NC(=O)[C@@H](N)CSSC[C@@H](C(=O)O)NC(=O)CNC(=O)[C@H](CCC(=O)O)NC(=O)[C@H](CCCCN)NC(=O)[C@H]([C@@H](C)O)NC(=O)[C@H](Cc2ccc(O)cc2)NC(=O)CNC1=O [cyclotraxin-B] (H-CNPMGYTKEGC-OH; disulfide 1-11; N-terminus and C-terminus assumed)
cell death (nnr5 PC12 cells): no cell death
IC50 (human TrkB receptor; with BDNF, read-out: IC50, inhibition of BDNF-induced TrkB activity): 300 ± 70 pM
IC50 (human TrkB receptor; without BDNF, read-out: IC50, BDNF-independent (basal) TrkB activity): 280 ± 80 pM
IC50 (nnr5 PC12-TrkB cells): 12.2 ± 8.5 pM
IC50 ([1]; cortical neurons, with BDNF, read-out: IC50, inhibition of BDNF-induced TrkB activity): 67.1 ± 18.9 pM
IC50 ([1]; neurons, without BDNF, read-out: IC50, BDNF-independent (basal) TrkB activity): 65.7 ± 21.7 pM

C[C@@H]1C[C@H]2[C@@H]3CCC4=CC(=O)C=C[C@]4(C)[C@@]3(F)[C@@H](O)C[C@]2(C)[C@@]1(O)C(=O)CO [dexamethasone, reference compound]
TrkB phosphorylation (indirect activation) ([1]; cortical neurons, 1 µM, 2 h): significantly triggered

CN1C(=O)CN=C(c2ccccc2)c2cc(Cl)ccc21 [diazepam, reference compound]
EPM number of entries in open arms (mice [2]): significantly increased
EPM time spent in open arms (mice [2]): significantly increased

Fc1ccc([C@@H]2CCNC[C@H]2COc2ccc3c(c2)OCO3)cc1 [paroxetine, reference compound]
FST climbing attempts (mice [3]): increased
FST time of immobility (mice [3]): significant decreased

NGF: neurotrophin
KIRA-ELISA signal (human TrkB receptor; recombinant cells): did not produce any signal
KIRA-ELISA signal ([1]; neuronal cells): did not produce any signal

NT-3: neurotrophin
ratio signal/background (human TrkB receptor): 3.8
EC50 (human TrkB receptor): 702 ± 134 pM
agonist behaviour at TrkB [1, 4]: partial agonist
ratio signal/background [1, 4]: 1.7
EC50 ([1]; neuronal TrkB receptors): 716 ± 167 pM

YGRKKRRQRRR [tat-empty, reference compound]
TrkB inhibition in brain slices (TrkB in brain slices): did not produce any effect

B1: BDNF: neurotrophin, cognate ligand of TrkB; mature recombinant human BDNF (Peprotech) (protein, UniProt P23560 19-247, looked up)
Neurotrophic factor BDNF …: APMKEANIRGQGGLAYPGVRTHGTLESVNGPKAGSRGLTSLADTFEHVIEELLDEDQKVRPNEENNKDADLYTSRVMLSSQVPLEPPLLFLLEEYKNYLDAANMSMRVRRHSDPARRGELSVCDSISEWVTAADKKTAVDMSGGTVTVLEKVPVSKGQLKQYFYETKCNPMGYTKEGCRGIDKRHWNSQCRTTQSYVRALTMDSKKRIGWRFIRIDTSCVCTLTIKRGR
ratio signal/background (human TrkB receptor): 3.94
EC50 (human TrkB receptor; agonist alone): 672 pM and 614 pM
EC50 ([1]; cortical neurons, agonist alone): 186 pM and 208 pM
